From patent US9657073B2, “Inhibitors of Bcl-2” (Case Western Reserve University, priority 2010, dated 2017)

Key:
Jurkat cells = test: Single cell digital imaging of intracellular Ca2+ (Fura-2); assay type: cell-based, human; conditions: 10 μM peptide, Jurkat, FIG. 5
Procedure: (§1) WEHI7.2 cells were cultured in DMEM supplemented with 10% fetal calf serum, L-glutamine (2 mM), and nonessential amino acids (100 μM). Transfections of WEHI7.2 cells with expression vectors encoding wild type Bcl-2 and Bcl-2RS/GG were described previously. Jurkat cells and RS11846 cells were cultured in RPMI medium supplemented with 10% fetal bovine serum, L-glutamine (2 mM), and nonessential amino acids (100 μM). Cells were maintained in 5% carbon dioxide at high humidity.
(§2) Methods of Ca^2+ imaging, described in detail previously, were employed here with only minor modification. Briefly, cells adhered to poly-L-lysine-coated coverslips (35-mm coverslip dishes, MatTek Corp., Ashland, Mass.) were loaded with 1 μM Fura-2 AM for 45 min at 25° C. in extracellular buffer (ECB) (130 mM NaCl, 5 mM KCl, 1.5 mM CaCl2, 1 mM MgCl2, 25 mM Hepes, pH 7.5, 1 mg/ml BSA, and 5 mM glucose). The buffer was replaced with fresh ECB and the incubation continued for […] at 25° C. to permit de-esterification. Culture dishes were mounted on the non-heated stage of an inverted microscope (Olympus CKX41) equipped with a 20× Fluor objective. Excitation light was alternated between 340 and 380 nm by a filter wheel (Sutter Instrument Co.), with 0.8 sec and 0.2 sec exposure times respectively, and emitted light was filtered at >510 nm and collected with an intensified charge-coupled device camera (Cooke 12 bit VGA). The video signal was digitized using InCyt Im2 software (Intracellular Imaging) and subsequently processed using Microsoft Excel. To determine Rmin cells were perfused with ECB deficient in Ca^2+ and supplemented with 4 mM EGTA and 10 μM ionomycin. Rmax was obtained by perfusing cells with ECB supplemented with 4 mM CaCl2 and 10 μM ionomycin. […] In most experiments peptides were fused with the cell penetrating peptide of HIV TAT to facilitate uptake by cells. In some experiments peptides, without linkage to TAT, were delivered into cells using Chariot reagent (Active Motif) as previously described. Xestospongin C (Enzo Life Sciences International) and U73122 (Sigma), both dissolved in DMSO, were added to cells 30 mM prior to Ca^2+ measurements.

RS11846 cells = test: as above; assay type: cell-based, human; conditions: RS11846, FIG. 6
Procedure: as §1, §2

[1] = tested on: triple IP3R knockout DT40 cells; test: as above; assay type: cell-based; conditions: 5 μM peptide, TKO DT40, FIG. 8C
Procedure: as §2, with “In some experiments peptides, without linkage to TAT, were delivered into cells using Chariot reagent (Active Motif) as previously described. Xestospongin C (Enzo Life Sciences International) and U73122 (Sigma), both dissolved in DMSO, were added to cells 30 mM prior to Ca^2+ measurements.” left out

wild type DT40 cells = test: as above; assay type: cell-based; conditions: 5 μM peptide, DT40 expressing all three IP3R isoforms, FIG. 8B
Procedure: as §2, with “In some experiments peptides, without linkage to TAT, were delivered into cells using Chariot reagent (Active Motif) as previously described. Xestospongin C (Enzo Life Sciences International) and U73122 (Sigma), both dissolved in DMSO, were added to cells 30 mM prior to Ca^2+ measurements.” left out

primary CLL cells [2] = test: as above; assay type: cell-based, human; conditions: 10 μM peptide
Description: (§3) Lymphocytes were freshly separated from heparinized peripheral blood obtained from normal adult volunteers or adult patients with chronic lymphocytic leukemia (CLL) meeting standard diagnostic guidelines. Patients had either never received treatment or had received treatment over two years prior to obtaining samples. We conformed to all guidelines and regulations in accordance with Internal Review Board protocols ICC2902/11-02-28 (Case Western Reserve University Cancer Center/University Hospitals of Cleveland Ireland Cancer Center). Cells were separated by centrifugation through Ficoll-Hypaque and suspended in RPMI medium supplemented with 10% fetal bovine serum, L-glutamine (2 mM), and nonessential amino acids (100 μM) at a density of 2 million cells/ml. Normal CD19+ B cells were pooled from healthy individuals between 26 and 32 years of age, in accordance with IRB-approval (as above). Mononuclear cells were separated by Ficoll-Hypaque centrifugation, and further isolation of B and T cells was achieved by magnetic separation using CD19 microbeads (Miltenyi Biotec, Bergisch Gladbach, Germany).
as §2

primary CLL cells [3] = test: Apoptosis and cell death assays (trypan blue, propidium iodide, Hoechst nuclear morphology, Annexin V); assay type: cell-based, human; conditions: 24 hr
Description: as §3, with “Patients had either never received treatment or had received treatment over two years prior to obtaining samples.” left out
Apoptosis was quantified according to apoptotic nuclear morphology and by detection of phosphatidylserine exposure on the plasma membrane. […] Images were obtained using a chargecoupled device camera (Hamamatsu Photonics, Shizuoka, Japan) and digitally converted by Simple PCI software (Hamamatsu Photonics). Membrane translocation of phosphatidylserine was detected by Annexin V staining. Annexin V-positive cells were assessed by flow cytometry using an ARIA flow cytometer (Beckman Coulter, Pasadena, Calif., USA). All flow cytometry data were analyzed using FlowJo 8.8.4 for Macintosh (Treestar, Ashland, Oreg., USA). Dead cells were identified according to their inability to exclude trypan blue dye or propidium iodide. Trypan blue dye uptake into cells was detected by light microscopy using a 40× objective and quantified by counting up to 400 cells. Propidium iodide uptake was quantified by flow cytometry in association with the Annexin V measurement described above.

multiple myeloma cells = test: Killing of multiple myeloma cells; assay type: cell-based; conditions: FIG. 17

## TAT-IDPDD/AA: TAT-IDP analogue; DD/AA substitution eliminates the predicted aspartyl protease cleavage site (RKKRRQRRRGGNVYTEIKCNSLLPLAAIVRV)
Jurkat cells
  amplitude and frequency of Ca2+ oscillations compared with TAT-IDP: much higher
RS11846 cells
  activity (Ca2+ oscillations) compared to TAT-IDP: increased activity
[1]
  induction of Ca2+ oscillations compared with wild type DT40: significantly less
Wild type DT40 cells
  induction of Ca2+ oscillations: induced Ca^2+ oscillations
Primary CLL cells [2]; 90 min
  CLL cells with one or two high amplitude spikes associated with prolonged basal Ca2+ elevation: 28±5%
  CLL cells with prolonged Ca2+ oscillations without baseline Ca2+ elevation: 6±2%
  CLL cells with relatively brief burst of Ca2+ oscillations associated with prolonged basal Ca2+ elevation: 17±4%
Primary CLL cells [2]; FIG. 10
  amplitude of Ca2+ peaks compared to TAT-IDP: significantly higher
Primary CLL cells [2]; recordings typically 90 min, FIG. 9
  CLL cells with Ca2+ elevation: 51 ±5%
Primary CLL cells [3]; 10 μM peptide, Figs. 12-15
  apoptosis induction in CLL cells: substantial apoptosis
Primary CLL cells [3]; propidium iodide exclusion by flow cytometry, FIG. 16
  sensitivity of CLL cells to apoptosis induction relative to normal peripheral blood lymphocytes: over 6 fold
Multiple myeloma cells
  killing of multiple myeloma cells: kills multiple myeloma cells
